Data reported in US8044200B2, “Synthesis and purification of pteroic acid and conjugates thereof” (Endocyte, Inc., priority 2005, dated 2011).

Test system: M109 cells
Test: Effect of isolated folate-fluorescein conjugates on growth of solid tumors (subcutaneous M109 tumors in fluorescein-immunized mice)
Type: in vivo
Conditions: female Balb/c mice preimmunized with KLH-fluorescein; s.c. M109 tumor; 500, 2000 or 5000 nmol/kg i.p., days 1-19; in combination with IL-2 and IFN-α; versus PBS control; FIG. 2
Experimental: Six to eight-week old (˜20-22 grams) female Balb/c mice (8 mice/group) were immunized subcutaneously at multiple sites with fluorescein-labeled keyhole limpet hemocyanin (KLH) using a commercial saponin adjuvant (GPI-0100; Galenica). After assuring that anti-fluorescein antibody titers were high in all mice (as evidenced by the results of ELISA assays of serum samples of the mice), each animal was injected subcutaneously in the shoulder with 1×10^6 M109 cells (a syngeneic lung cancer cell line that expresses high levels of the folate receptor; day 0) following prior immunization with KLH-fluorescein. The immunizations with folate-fluorescein after tumor cell implantation consisted of 500, 2000, or 5000 nmol/kg of folate-fluorescein, conjugated via a gamma carboxyl-linked ethylene diamine bridge, given in 19 intraperitoneal doses at 24 hour intervals (days 1-19). Control animals were injected with phosphate buffered saline (PBS). A series of 5 daily injections (five times a week) for three weeks of 20,000 IU/day of recombinant human IL-2 were administered to all mice in order to stimulate the immune system. A series of 3 injections for three weeks of 25,000 U/day of recombinant human IFN-α were also administered to all mice. The efficacy of this immunotherapy was then evaluated by monitoring tumor volume (mm^3) using a caliper.

Nc1nc2ncc(CNc3ccc(C(=O)NC(CCC(=O)NCCNC(=S)Nc4ccc5c(c4)C(=O)OC54c5ccc(O)cc5Oc5cc(O)ccc54)C(=O)O)cc3)nc2c(=O)[nH]1 (stereo not shown) [folate-fluorescein]
growth of solid tumors (tumor volume): significantly inhibited
